# From patent US20090012766A1, “Event Sequencer” (NATIONAL INSTITUTE OF ADVANCED INDUSTRIAL SCIENCE AND …, priority 2004, published 2009)
# Experiments:
# HEK293 cells = experiment: Solid phase transfection with actin-like acting substances, gelatin as control (FIG. 1); type: cell-based, human
# Procedure: (§1) The final concentration of DNA was adjusted to 1 μg/μL. An actin-like acting substance was stored as a stock having a concentration of 10 μg/μL, in ddH2O. All dilutions were made using PBS, ddH2O, or Dulbecco's MEM. A series of dilutions, for example, 0.2 μg/μL, 0.27 μg/μL, 0.4 μg/μL, 0.53 μg/μL, 0.6 μg/μL, 0.8 μg/μL, 1.0 μg/μL, 1.07 μg/μL, 1.33 μg/μL, and the like, were formulated.
# In Example 2, the following 5 cells were used to confirm an effect: human mesenchymal stem cell (hMSCs, PT-2501, Cambrex BioScience Walkersville, Inc., MD); human embryonic renal cell (HEK293, RCB1637, RIKEN Cell Bank, JPN); NIH3T3-3 cell (RCB0150, RIKEN Cell Bank, JPN); HeLa cell (RCB0007, RIKEN Cell Bank, JPN); and HepG2(RCB1648, RIKEN Cell Bank, JPN). These cells were cultured in DMEM/10% IFS containing L-glutamine and penicillin/streptomycin.
# (§2) Transfection reagents and DNA were mixed to form a DNA-transfection reagent complex. Formation of the complex requires a certain period of time. Therefore, the mixture was spotted onto a solid phase support (e.g., a poly-L-lysine slide) using an arrayer. In Example 2, as a solid phase support, an APS slide, a MAS slide, and an uncoated slide were used, as well as a poly-L-lysine slide. These slides are available from Matsunami Glass (Kishiwada, Japan), or the like.
# Although the actin-like acting substance might be used during complex formation, it was also used immediately before spotting in the present Example.
# 300 μL of DNA concentrated buffer (EC buffer)+16 μL of an enhancer were mixed in an Eppendorf tube. The mixture was mixed with a Vortex, followed by incubation for 5 minutes. […]
# Gene introduction was evaluated by detection using, for example, immunofluorescence, fluorescence microscope examination, laser scanning, radioactive labels, and sensitive films, or emulsion.
# (§3) To quantify transfection efficiency, the present inventors use a DNA microarray scanner (GeneTAC UC4×4, Genomic Solutions Inc., MI). Total fluorescence intensity (arbitrary unit) was measured, and thereafter, fluorescence intensity per unit surface area was calculated.
# [1] = tested on: cells resistant or sensitive to the anticancer agent; experiment: Time-lapse profiles of cells exposed to an anticancer agent; type: cell-based; conditions: 1 μM, 5 μM, 10 μM and the like
# Procedure: In this example, cisplatin was used as an exemplary anticancer agent and mixed into medium contacting cells. The concentration of the anticancer agent was selected as appropriate, such as 1 μM, 5 μM, 10 μM, and the like, to observe the reaction of the cells. Cisplatin was applied to cells resistant or sensitive to the anticancer agent. Time-lapse observation was conducted to produce profiles as in the above-described examples.
# Mesenchymal Stem Cells = experiment: Solid phase transfection at varied fibronectin concentration on PLL, APS and uncoated slides (FIG. 7); type: cell-based, human
# Procedure: as §1, §2
# The growing cells were adjusted to a concentration of 10^7 cells/25 mL. The cells were plated on the slide in a 100×100×15 mm squared Petri dish or a 100 mm (radius)×15 mm circular dish. Transfection was conducted for about 40 hours. This period of time corresponded to about 2 cell cycles. The slide was treated for immunofluorescence.
# as §3
# In FIG. 7, slides coated with PLL (poly-L-lysine), APS and uncoated slides are shown.
# Human Mesenchymal Cell = experiment: Cell adhesion profile, actin filaments and nuclear surface area with or without fibronectin (FIGS. 8-10); type: cell-based; conditions: presence of fibronectin
compound,measurement,setting,value
gelatin [reference compound],transfection in the system using the actin-like acting substance,HEK293 cells,transfection was not very successful
N.N.[Cl][Pt][Cl] [cisplatin],time-lapse profiles,[1],varied depending on the difference in cisplatin concentration and resistance/sensitivity
fibronectin,transfection in the system using the actin-like acting substance,HEK293 cells,transfection took place to a significant level
same,fibronectin concentration at which the effect was further increased,Mesenchymal Stem Cells; APS slides,> 1.07 µg/µL
same,fibronectin concentration at which transfection efficiency reached a plateau,Mesenchymal Stem Cells; PLL coating and absence of coating,more than 0.53 μg/μL
same,transfection efficiency as a function of fibronectin concentration,"Mesenchymal Stem Cells; fibronectin 0 to 1.33 μg/μL, PLL, APS, uncoated slides",increased with an increase in fibronectin concentration
same,surface area of the nucleus,Human Mesenchymal Cell,significantly increased
same,extension of adherent cells,Human Mesenchymal Cell; initial 3 hours of culture,full extension of cells
laminin,transfection in the system using the actin-like acting substance,HEK293 cells,transfection took place to a significant level
